# Measurements: patent US20080038321A1, “PROPHYLACTIC/THERAPEUTIC COMPOSITIONS FOR LIVER DISEASES” (Ajinomoto Co., Inc., priority 2004, published 2008)
# Experiments:
# TRB3 [1] = assay: TRB3 mRNA in Fao cells with L-Asp, L-Ala or both (quantitative PCR); assay type: cell-based, rat; conditions: 3 h, L-Asp 0.05 mM, L-Ala 0.03 mM or both
# Procedure: (§1) Whether the suppressive effect of L-Asp on TRB3 expression in rat hepatocyte-derived Fao cells is increased by adding L-Ala as another amino acid was studied. Whether the expression of HNF-4α is increased was also studied. Fao cells were inoculated on a 24-well plate to an amount of 2×10^5 cells/well, and the cells were cultivated in a 10% fetal bovine serum-containing RPMI 1640 medium (supplied from Nacalai Tesque, Inc.; Code No. 30264-85) at 37° C. in an atmosphere of 5% CO2 overnight. On the following day, the medium was replaced with one of a 10% fetal bovine serum-containing RPMI medium from which all amino acids had been removed (minus amino acid medium; Table 1) and media corresponding to the minus amino acid medium, except with L-Asp (concentration: 0.05 mM), L-Ala (concentration: 0.03 mM), or both added, and the cells were further cultivated at 37° C. in 2.5% CO2 atmosphere for three hours. RNAs were extracted from the cultured cells, and the TRB3 mRNA levels and the HNF-4α mRNA levels were determined through quantitative polymerase chain reaction (PCR) (Table 10).
# HNF-4α = HNF-4α mRNA in Fao cells with L-Asp, L-Ala or both (quantitative PCR); assay type: cell-based, rat; conditions: 3 h, L-Asp 0.05 mM, L-Ala 0.03 mM or both
# Procedure: as §1
# TRB3 [2] = assay: Suppressive effects of amino acids on TRB3 expression in cultured hepatocytes (Fao cells, quantitative PCR); assay type: cell-based, rat; conditions: other experiments; 1 mM
# [3] = system: GK rats fed with high-fat diets; assay: GK rats fed with high-fat diets: body weight, fasting glucose, insulin, triglyceride, liver triglyceride; conditions: HFD with about 6% L-Asp or 0.01% pioglitazone
# TRB3 [4] = assay: Suppressive effects of amino acids on TRB3 expression in cultured hepatocytes (Fao cells, quantitative PCR); assay type: cell-based, rat; conditions: 3 h, minus amino acid medium plus one L-amino acid 1 mM (or standard medium), mRNA, minus amino acid medium = 1.00, n = 4, mean ± SD
# Procedure: Suppressive effects of twenty-two amino acids on TRB3 expression in rat hepatic cancer-derived Fao cells were examined.
# The standard medium is a medium corresponding to the minus amino acid medium, except for further containing amino acids listed in Table 2.
# RNAs were extracted from the cultured cells, the expression levels of TRB3 gene were determined through quantitative polymerase chain reaction (PCR), and the suppressive effects of amino acids on TRB3 expression were determined and compared with data of TRB3 expression induced upon amino acid starvation. The gene expression was corrected with reference to β-actin expression level. The correction was carried out in the same manner in the after-mentioned genes.
# The data were corrected and expressed while taking the average of TRB3 mRNA levels after three-hour cultivation in the minus amino acid medium as 1.00.
# [5] = system: glucose-6-phosphatase (G6Pase); assay: Effect of L-Asp on G6Pase expression suppressive action of insulin in Fao cells (quantitative PCR); assay type: cell-based, rat; conditions: 6 h, no insulin = 1.00
# Procedure: To verify whether an amino acid showing a TRB3 expression suppressive action actually increases the insulin action on hepatocytes, how L-Asp acts on glucose-6-phosphatase (G6Pase) expression suppressive action of insulin in rat hepatic cancer-derived Fao cells was studied.
# Fao cells were inoculated on a 24-well plate and cultured overnight. Thereafter, 0, 0.3, and 1.0 mM L-Asp and 0, 10^−10, 10^−8, and 10^−6 M insulin were added respectively to a basal medium corresponding to RPMI 1640 medium containing no glucose but 0.1% BSA, except with L-Asp being removed therefrom, and the cells were further cultivated for six hours. RNAs were extracted from the cultured cells, and the expression levels of G6Pase were determined through quantitative PCR.
# The G6Pase expression level in −Asp RPMI medium added with no insulin is defined as 1.00.
# The values in the parentheses are values while defining the G6Pase expression levels in −Asp RPMI medium at respective insulin concentrations as 1.00, respectively.
# [6] = before administration (baseline)
compound,measurement,setting,value
"C[C@H](N)C(=O)O [Ala, L-alanine]",TRB3 mRNA level,TRB3 [1]; minus amino acid medium = 1.00,0.43
same,expression level of TRB3 mRNA,TRB3 [1]; of minus amino acid medium,43%
same,expression level of HNF-4α mRNA,HNF-4α,not increased
same,HNF4α mRNA level,HNF-4α; minus amino acid medium = 1.00,0.80
"C[N+](C)(C)CC(=O)O [betaine, reference compound]",suppressive effect on TRB3 expression,TRB3 [2],does not show a suppressive effect
"CCc1ccc(CCOc2ccc(CC3SC(=O)NC3=O)cc2)nc1 (stereo not shown) [Pio, pioglitazone, reference compound]",Fasting blood glucose level,[3]; [6],121 ± 37 mg/dL
same,Fasting insulin level,[3]; [6],0.4 ± 0.3 ng/mL
same,Fasting triglyceride level,[3]; [6],92 ± 19 mg/dL
same,Body weight,"[3]; before administration (baseline), n = 6",222 ± 10 g
same,Fasting blood glucose level,[3]; week 3,127 ± 5 mg/dL
same,Fasting insulin level,[3]; week 3,1.9 ± 0.2 ng/mL
same,Fasting triglyceride level,[3]; week 3,97 ± 16 mg/dL
same,Fasting blood glucose level,[3]; week 6,109 ± 8 mg/dL
same,Fasting insulin level,[3]; week 6,1.3 ± 0.5 ng/mL
same,Fasting triglyceride level,[3]; week 6,75 ± 12 mg/dL
same,Triglyceride content in liver,[3]; week 6,36 ± 8 mg/g
N[C@@H](Cc1ccccc1)C(=O)O [phenylalanine],TRB3 expression level,TRB3 [4],do not show significantly suppressed TRB3 expression
"N[C@@H](CSSC[C@H](N)C(=O)O)C(=O)O [L-Cyt, cystine]",TRB3 expression level,TRB3 [4],0.487 ± 0.13
same,TRB3 expression level,TRB3 [4]; listed as cystine,significantly suppressed TRB3 expression
"NC(=O)CC[C@H](N)C(=O)O [L-Gln, glutamine]",TRB3 expression level,TRB3 [4],0.750 ± 0.15
same,TRB3 expression level,TRB3 [4]; listed as glutamine,significantly suppressed TRB3 expression
insulin: insulin added to the Fao cell culture medium at 10^-10 to 10^-6 M [reference compound],G6Pase expression level,[5]; insulin 10^-6 M alone in -Asp RPMI,0.023 (1.00)
same,G6Pase expression level,[5]; insulin 10^-8 M alone in -Asp RPMI,0.032 (1.00)
same,G6Pase expression level,[5]; insulin 10^-10 M alone in -Asp RPMI,0.148 (1.00)
CC(C)[C@H](N)C(=O)O [valine],TRB3 expression level,TRB3 [4],do not show significantly suppressed TRB3 expression
"N[C@@H](Cc1c[nH]cn1)C(=O)O [L-His, histidine]",TRB3 expression level,TRB3 [4],0.643 ± 0.19
same,TRB3 expression level,TRB3 [4]; listed as histidine,significantly suppressed TRB3 expression
NC(=O)C[C@H](N)C(=O)O [asparagine],TRB3 expression level,TRB3 [4],do not show significantly suppressed TRB3 expression
N[C@@H](Cc1c[nH]c2ccccc12)C(=O)O [tryptophan],TRB3 expression level,TRB3 [4],do not show significantly suppressed TRB3 expression
"NCC(=O)O [L-Gly, glycine]",TRB3 expression level,TRB3 [4],0.665 ± 0.12
same,TRB3 expression level,TRB3 [4]; listed as glycine,significantly suppressed TRB3 expression
N[C@@H](Cc1ccc(O)cc1)C(=O)O [tyrosine],TRB3 expression level,TRB3 [4],do not show significantly suppressed TRB3 expression
C[C@@H](O)[C@H](N)C(=O)O [threonine],TRB3 expression level,TRB3 [4],do not show significantly suppressed TRB3 expression
CC[C@H](C)[C@H](N)C(=O)O [isoleucine],TRB3 expression level,TRB3 [4],do not show significantly suppressed TRB3 expression
CC(C)C[C@H](N)C(=O)O [leucine],TRB3 expression level,TRB3 [4],do not show significantly suppressed TRB3 expression
N=C(N)NCCC[C@H](N)C(=O)O [arginine],TRB3 expression level,TRB3 [4],do not show significantly suppressed TRB3 expression
O=C(O)[C@@H]1C[C@@H](O)CN1 [hydroxyproline],TRB3 expression level,TRB3 [4],do not show significantly suppressed TRB3 expression
N[C@@H](CCC(=O)O)C(=O)O [glutamic acid],TRB3 expression level,TRB3 [4],do not show significantly suppressed TRB3 expression
O=C(O)[C@@H]1CCCN1 [proline],TRB3 expression level,TRB3 [4],do not show significantly suppressed TRB3 expression
N[C@@H](CO)C(=O)O [serine],TRB3 expression level,TRB3 [4],do not show significantly suppressed TRB3 expression
N[C@@H](CS)C(=O)O [cysteine],TRB3 expression level,TRB3 [4],do not show significantly suppressed TRB3 expression
NCCCC[C@H](N)C(=O)O [lysine],TRB3 expression level,TRB3 [4],do not show significantly suppressed TRB3 expression
CSCC[C@H](N)C(=O)O [methionine],TRB3 expression level,TRB3 [4],do not show significantly suppressed TRB3 expression
